Data: PMC6857076 (Pharmacology Research & Perspectives, 2019)
Where two headings read alike, the source gives them in different places.

System: G-CSF cytokine receptor (JAK1/JAK2)
Experiment: Human whole blood, G-CSF-induced pSTAT3, granulocytes
Format: cell-based
Protocol: Blood was warmed to 37°C prior to use.
Then, 5 µL of PBS or cytokine was added to each well (5 µL/well; final, 10 U/mL EPO, 100 ng/mL G‐CSF, 10 ng/mL GM‐CSF, 5000 U/mL IFNα, 100 ng/mL IFNγ, 50 ng/mL IL‐2, 50 ng/mL IL‐3, 5 ng/mL IL‐4, 50 ng/mL IL‐6, 30 ng/mL IL‐7, 30 ng/mL IL‐10, 30 ng/mL IL‐12, 30 ng/mL IL‐13, 30 ng/mL IL‐15, 50 ng/mL IL‐21, 25 ng/mL IL‐23, 1000 ng/mL IL‐27) and incubated for 15 minutes. […]
The lymphocyte population was gated for pSTAT histogram analysis for IFNα‐, IL‐2‐, IL‐3‐, IL‐4‐, IL‐7‐, IL‐10‐, IL‐12‐, IL‐15‐, IL‐21‐, IL‐23‐, and IL‐27‐treated samples; granulocyte population for G‐CSF‐treated samples; CD14^+ cells for GM‐CSF‐, IFNγ‐, and TPO‐treated samples; CD3^+ cells and CD14^+ cells for IL‐6‐treated samples; CD14^+ cells and CD19^+ cells for IL‐13‐treated samples; all events (entire populations) for EPO‐treated cells. Background fluorescence was defined using unstimulated cells and a gate was placed at the foot of the peak to include ~0.5% gated population.
Histogram statistical analysis was performed using FACSDiva version 8.0.1 (BD Biosciences). Relative fluorescence unit (RFU), which measures the level of pSTAT, was calculated by multiplying the percent positive population and its mean fluorescence. […]
Inhibition curves and IC50 values were determined using Prism software (Version 7, GraphPad).

Which IC50 (read-out: IC50, G-CSF, pSTAT3) does the source give for `CC[C@@H]1CN(C(=O)NCC(F)(F)F)C[C@@H]1c1cnc2cnc3[nH]ccc3n12` [Upadacitinib] here?
Its IC50 is 78 nM.

What about the IC50 (read-out: IC50,u, G-CSF, pSTAT3) of the same molecule?
The IC50 was 38 nM.
